The supplement of paper PMC6580486

Tests used:
[1] = test system: s1-12 (canine undifferentiated pleomorphic sarcoma culture)
Method: (§1)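 60-agent targeted drug screens (Drug Screen V3 on epithelioid sarcoma cultures PCB490-3/4/5, PCB495, EPS cell lines ESX, VA-ES-BJ, FU-EPS-1 and SkMc myoblasts; PPTI screen v2.1 on human UPS PCB197 and canine UPS S1-12). 384-well plates, 72 h, CellTiter-Glo viability; IC50 by Hill curve fit. 10000 nM = no IC50 achieved (top reported value).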

[2] = test system: pcb-00197 (human undifferentiated pleomorphic sarcoma culture)
Method: as §1

[3] = test system: PCB490-5 (human epithelioid sarcoma primary culture)
Method: (§2)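 Roche open-access kinase inhibitor screen (223 compounds) on human epithelioid sarcoma primary cultures from three spatially distinct regions of tumor PCB490. 384-well plates, 72 h, CellTiter-Glo viability; IC50 by Hill curve fit. 100000 nM = no IC50 reached. Compound ids carry a plate-well prefix, which is stripped.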

[4] = test system: PCB490-3 (human epithelioid sarcoma primary culture)
Method: as §2

[5] = test system: PCB490-4 (human epithelioid sarcoma primary culture)
Method: as §2

SMILES	IC50 cell viability [1] [µM]	IC50 cell viability [2] [µM]	IC50 cell viability [3] [µM]	IC50 cell viability [4] [µM]	IC50 cell viability [5] [µM]
CS(=O)(=O)c1ccc(C(=O)Nc2ccc(Cl)c(-c3ccccn3)c2)c(Cl)c1 [vismodegib]	2.75	> 10	–	–	–
Cn1cnc2c(F)c(Nc3ccc(Br)cc3Cl)c(C(=O)NOCCO)cc21 [selumetinib]	1.55	> 10	–	–	–
Cc1nc(Nc2ncc(C(=O)Nc3c(C)cccc3Cl)s2)cc(N2CCN(CCO)CC2)n1 [dasatinib]	0.86	0.14	–	–	–
C[C@]1(c2nc3c(C(N)=O)cccc3[nH]2)CCCN1 [veliparib]	> 10	> 10	–	–	–
CC(C)(C)c1cnc(CSc2cnc(NC(=O)C3CCNCC3)s2)o1 [SNS-032]	0.11	0.78	–	–	–
CN(C)CC[C@H](CSc1ccccc1)Nc1ccc(S(=O)(=O)NC(=O)c2ccc(N3CCN(Cc4ccccc4-c4ccc(Cl)cc4)CC3)cc2)cc1[N+](=O)[O-] [ABT 737]	1.06	> 10	–	–	–
Cc1ccc(Nc2nccc(N(C)c3ccc4c(C)n(C)nc4c3)n2)cc1S(N)(=O)=O [pazopanib]	> 10	> 10	–	–	–
Cc1cn(-c2cc(NC(=O)c3ccc(C)c(Nc4nccc(-c5cccnc5)n4)c3)cc(C(F)(F)F)c2)cn1 [Nilotinib]	> 10	> 10	–	–	–
COc1cc(Nc2ncc(F)c(Nc3ccc4c(n3)N(COP(=O)(O)O)C(=O)C(C)(C)O4)n2)cc(OC)c1OC [Fostamatinib]	0.73	4.33	–	–	–
CC1=C(/C=C/C(C)=C/C=C/C(C)=C/C(=O)Nc2ccc(O)cc2)C(C)(C)CCC1 [Fenretinide]	1.84	> 10	–	–	–
CN(C)c1ccccc1CN1CCCN(Cc2ccccc2N(C)C)C1c1ccncc1 [GANT61]	> 10	> 10	–	–	–
CC/C(=C(\c1ccccc1)c1ccc(OCCN(C)C)cc1)c1ccccc1 [Tamoxifen]	> 10	> 10	–	–	–
C[C@@H](Oc1cc(-c2cnn(C3CCNCC3)c2)cnc1N)c1c(Cl)ccc(F)c1Cl [crizotinib]	1.18	1.53	–	–	–
COC1=CC(c2cc3ccccc3[nH]2)=N/C1=C\c1[nH]c(C)cc1C [obatoclax]	0.04	0.21	–	–	–
NC1(c2ccc(-c3nc4ccn5c(=O)[nH]nc5c4cc3-c3ccccc3)cc2)CCC1 [MK-2206]	1.09	> 10	–	–	–
Cc1ccc(C(=O)Nc2ccc(CN3CCN(C)CC3)c(C(F)(F)F)c2)cc1C#Cc1cnc2cccnn12 [ponatinib]	0.16	4.43	–	–	–
CNC(=O)c1cc(Oc2ccc(NC(=O)Nc3ccc(Cl)c(C(F)(F)F)c3)cc2)ccn1 [sorafenib]	6.43	> 10	–	–	–
COc1cc(Nc2ncc3c(n2)-c2ccc(Cl)cc2C(c2c(F)cccc2OC)=NC3)ccc1C(=O)O [MLN8237]	0.98	2.74	–	–	–
Nc1ncn([C@H]2C[C@H](O)[C@@H](CO)O2)c(=O)n1 [decitabine]	0.33	> 10	–	–	–

SMILES	IC50 cell viability [1] [µM]	IC50 cell viability [2] [µM]	IC50 cell viability [3] [µM]	IC50 cell viability [4] [µM]	IC50 cell viability [5] [µM]
Cn1c(=O)n(-c2ccc(C(C)(C)C#N)cc2)c2c3cc(-c4cnc5ccccc5c4)ccc3ncc21 [BEZ 235]	0.22	0.57	–	–	–
CN1CC[C@H](c2c(O)cc(O)c3c(=O)cc(-c4ccccc4Cl)oc23)[C@H](O)C1 [Alvocidib]	0.01	0.26	–	–	–
C=C1C[C@@H]2CC[C@@]34C[C@H]5O[C@H]6[C@@H](O3)[C@H]3O[C@H](CC[C@@H]3O[C@H]6[C@H]5O4)CC(=O)C[C@@H]3[C@@H](OC)[C@@H](C[C@H](O)CN)O[C@H]3C[C@H]3O[C@@H](CC[C@@H]1O2)C[C@@H](C)C3=C [Eribulin]	1.31	0.01	–	–	–
CC(/C=C/C(=O)NO)=C\[C@@H](C)C(=O)c1ccc(N(C)C)cc1 [trichostatin]	0.87	> 10	–	–	–
N#CC[C@H](C1CCCC1)n1cc(-c2ncnc3[nH]ccc23)cn1 [ruxolitinib]	6.93	> 10	–	–	–
Nc1cccc2c1CN(C1CCC(=O)NC1=O)C2=O (stereo not drawn) [Lenalidomide]	2.85	> 10	–	–	–
COc1cc2/c(=N/c3ccc(Br)cc3F)nc[nH]c2cc1OCC1CCN(C)CC1 [Vandetanib]	1.24	1.32	–	–	–
CCCS(=O)(=O)Nc1ccc(F)c(C(=O)c2c[nH]c3ncc(-c4ccc(Cl)cc4)cc23)c1F [vemurafenib]	> 10	> 10	–	–	–
CN(c1ncccc1CNc1nc(Nc2ccc3c(c2)CC(=O)N3)ncc1C(F)(F)F)S(C)(=O)=O	1.42	4.56	–	–	–
Cc1[nH]c2ccccc2c1CCNCc1ccc(/C=C/C(=O)NO)cc1 [panobinostat]	0.1	1.05	–	–	–
COc1nc(C)cnc1NS(=O)(=O)c1cccnc1-c1ccc(-c2nnco2)cc1 [zibotentan]	> 10	> 10	–	–	–
CN1CCN(CCOc2cc(OC3CCOCC3)c3c(Nc4c(Cl)ccc5c4OCO5)ncnc3c2)CC1 [Saracatinib]	1.51	> 10	–	–	–
CCCC(=O)[O-].[Na+] [sodium butyrate]	1.57	> 10	–	–	–
CCN(CCCOc1ccc2c(Nc3cc(CC(=O)Nc4cccc(F)c4)[nH]n3)ncnc2c1)CCOP(=O)(O)O [barasertib]	> 10	> 10	–	–	–
Cn1cc(C2=C(c3cn(C)c4cc(C(=O)O)ccc34)C(=O)NC2=O)c2ccccc21	–	–	> 100	> 100	> 100
Cn1cc(C2=C(c3c4n(c5ccccc35)CCC(CN)CC4)C(=O)NC2=O)c2ccccc21 (stereo not drawn)	–	–	> 100	> 100	> 100
CC(=O)Nc1ccc2c(c1)C(c1ccccc1Cl)=Nc1c(n[nH]c1C)N2	–	–	1.55	4.63	1.72
Cn1c(=O)c(-c2ccccc2Cl)cc2cnc(NC3CCOCC3)nc21	–	–	> 100	> 100	> 100
CC(=O)N[C@@H](Cc1ccc(OP(=O)(O)O)cc1)C(=O)N[C@H]1CCC(=O)N2CCC[C@@H](C(=O)NCc3ccc(Cl)cc3)N2C1=O	–	–	> 100	> 100	> 100

SMILES	IC50 cell viability [1] [µM]	IC50 cell viability [2] [µM]	IC50 cell viability [3] [µM]	IC50 cell viability [4] [µM]	IC50 cell viability [5] [µM]
Cc1cc(C)c2c(n1)sc1c(N)ncnc12	–	–	> 100	> 100	> 100
C[C@@H](CS(C)(=O)=O)Nc1ncc2cc(Oc3ccc(F)cc3F)c(=O)n(C)c2n1	–	–	> 100	> 100	> 100
Cc1[nH]n(-c2ccccc2)c(=O)c1C(=O)c1ccccc1	–	–	> 100	> 100	> 100
CC(=O)N[C@@H](Cc1ccc(OP(=O)(O)O)cc1)C(=O)N[C@H]1CCC(=O)N2CCC[C@@H](C(=O)NCc3ccccc3)N2C1=O	–	–	> 100	> 100	> 100
Cn1c(=O)c(Oc2ccc(F)cc2F)cc2cnc(NC(CO)CO)nc21	–	–	8.58	> 100	15
CC(CO)Nc1cc(-c2[nH]c3cccnc3c2-c2ccc(F)cc2)ccn1 (stereo not drawn)	–	–	> 100	> 100	> 100
C[C@@H](Cn1ncnn1)Nc1ncc2cc(Oc3ccc(F)cc3F)c(=O)n(C)c2n1	–	–	> 100	> 100	> 100
Cc1c(C2=C(c3cn(C)c4ccccc34)C(=O)NC2=O)c2ccccc2n1C	–	–	> 100	> 100	> 100
CN1CCN(c2ccc(Nc3nc(N)c(C(=O)c4ccc5c(c4)OCCO5)s3)cc2)CC1	–	–	> 100	> 100	> 100
O=C1NC(=NCCc2cccc(F)c2)S/C1=C\c1ccc2ncccc2c1	–	–	> 100	> 100	> 100
Cn1cc(C2=C(c3cn(CCCO)c4ccccc34)C(=O)NC2=O)c2ccccc21	–	–	> 100	> 100	> 100
CC(C)(O)CCc1cccc(C(=O)c2cnn(-c3ccc(F)cc3)c2N)c1	–	–	> 100	> 100	> 100
CC(=O)Nc1ccc2c(C3=C(c4cn(C)c5ccccc45)C(=O)NC3=O)cn(C)c2c1	–	–	> 100	> 100	1.94
CON=C1NC(=O)/C(=C/c2ccc3ncccc3c2)S1	–	–	> 100	6.8	> 100
Cn1cc(C2=C(c3c4n(c5ccccc35)CCNC4)C(=O)NC2=O)c2ccccc21	–	–	> 100	> 100	> 100
Cn1cc(C2=C(c3c[nH]c4ccccc34)C(=O)NC2=O)c2ccccc21	–	–	> 100	> 100	> 100
COc1cc(F)c(F)c(F)c1C(=O)c1cnc(NC2CCN(S(C)(=O)=O)CC2)nc1N	–	–	7.14	> 100	4.47
Cn1cc(C2=C(c3cccc(OCC(O)CO)c3)C(=O)NC2=O)c2ccccc21 (stereo not drawn)	–	–	> 100	> 100	> 100
Cn1cc(C2=C(c3cccc(Cl)c3)C(=O)NC2=O)c2ccccc21	–	–	> 100	> 100	> 100
